From US5688760A, “Polypeptides having bone resorption inhibitory activity comprising PTHrP-derived sequences” (Genentech, Inc., priority 1990, dated 1997)
Non-standard residues stand in square brackets, D forms with d. No end group written: not given here. 2Nal = N[C@@H](Cc1ccc2ccccc2c1)C(=O)O; Aib = CC(C)(N)C(=O)O

Columns and labels:
isolated osteoclasts = test: Osteoclast isolation and assay of bone resorption (resorption pits per osteoclast on bovine cortical bone slices); format: cell-based, neonatal female Wistar rats; parameters: key to Activity (bone resorption inhibitory activity), Table 3 Effect of Amino Acid Substitutions: bone resorption inhibitory activity is designated by a "+"; inactivity by "-"; conditions: for Activity (bone resorption inhibitory activity), Table 3 Effect of Amino Acid Substitutions: amino acid derivatives of PTHrP (107-111)
Experimental: For example, osteoclasts may be settled on sections of bone and incubated in the presence of, and in the absence of test compounds. Osteoclasts can be determined histochemically and can then be removed following incubation with bone sections by, for example, ultrasonification and the bone surface examined by microscopy to measure resorption pits produced per isolated osteoclasts. The number of resorption pits may be counted and their areas quantitated, for example by digitized morphometry. The variants or derivatives with inhibitory activity on bone resorption will, of course, inhibit the activity of osteoclasts in resorption of bone, which can be readily ascertained by analysis of bone sections. Likewise, variants or derivatives which have no effect in inhibiting bone resorption or which stimulate bone resorption will be evidenced by the formation of resorption pits on bone-sections.
Osteoclasts were isolated from neonatal female Wistar rats by curetting the long bones into culture medium (HEPES-buffered Medium 199 [Trademark Flow Laboratories]). The resulting cell suspension was allowed to settle onto 100 μm thick slices of devitalized bovine cortical bone for 20 minutes before rinsing. After this brief settling period, the majority of contaminating cells are removed in the rinsing step, resulting in a functionally pure population of osteoclasts. The bone slices were then incubated in tissue culture medium (Eagle's Minimum Essential Medium [Flow Laboratories] supplemented, with 100 iU/ml benzylpenicillin 100 μg/ml streptomycin and 10% heat-inactivated fetal bovine serum) at 37° C. in 95% air, 5% CO2, pH 7.3 in the presence or absence of test agents. After 24 hours, the cells were fixed, reacted cytochemically for tartrate-resistant acid phosphatase (TRACP) and the number of multinucleated cells with strong reactions for TRACP (i.e. osteoclasts) counted. The cells were then stripped by ultrasonication in 0.25M NH4 OH prior to processing for scanning electronic microscopy. The entire surface of each bone slice was scanned and the number of resorption pits counted. In selected experiments the depth of the pits are assessed. There was a minimum of 6 replicates for each concentration point for each peptide. Each experiment was repeated at least 3 times. Statistical significance was determined by using Student's t test to compare each treatment with control. Bone resorption can be expressed as pit No./OC/bone slice, total excavated plan area/OC/bone slice, or total excavated volume of bone/OC/bone slice. Such assays are routine and readily amenable to the screening of large numbers of compounds for bone resorption inhibitory activity.

[1] = system: Cyclic AMP in osteoclasts; test: Cyclic AMP assay in isolated osteoclasts; format: cell-based, rat; conditions: osteoclasts pretreated with isobutylmethylxanthine 1 mM, peptide for 10 minutes
Experimental: Recombinant hPTHrP(1-141) and recombinant hPTHrP(1-108) were prepared and purified as previously described (Suva et al., Supra, incorporated herein by reference). hPTHrP(107-139), […]COOH (SEQ ID NO:2), and other peptides were synthesized as carboxy-terminal amides, using an Applied Biosystems Peptide Synthesizer Model 430. Following HF cleavage, peptides were extracted from the resin with 60% (v/v) acetonitrile and 0.1% (v/v) trifluoroacetic acid and lyophilized. The crude peptides were purified by […] (2.5×90 cm column, C18, 20-30 μm. 300 Å resin, Vydac, California) with an acetonitrile gradient in the presence of 0.1% trifluoroacetic acid. The composition of the synthetic peptides was verified by quantitative amino acid analysis using a Beckman 6300 amino acid analyser. Cyclic AMP Assay: Osteoclasts were isolated as described above into 12-well tissue culture plates (Linbro). The cultures were pretreated with isobutylmethylxanthine (1 mM) for 20 minutes prior to administration of test peptides for 10 minutes. Cyclic AMP was extracted with 95% (v/v) ethanol/1 mM HCl and measured by radioimmunoassay. Four to six replicate wells were used in each treatment group.

[2] = In vivo serum calcium levels after intravenous injection in rats; conditions: 100 nanograms 100 grams body weight, saline control about 2.58
Experimental: Mammalian serum calcium levels are tightly controlled by homeostatic mechanisms and show little variation. A model peptide, PTHrP 107-139 was injected intraveneously into rats (n=10) in an amount of 100 nanograms 100 grams body weight whereafter serum calcium levels were measured at 30 and 60 minutes by atomic absorption spectrascopy according to standard methods. Control groups of animals were injected with a positive control, calcitonin, which causes a decrease in serum calcium levels, as well as a negative control in the form of saline. Two groups of 10 rats ware used in these controls.

Q: With `CC1CNCCN1S(=O)(=O)c1cccc2cnccc12` (stereo not shown) [H7, 1-(5-isoquinolinesulfonyl)-2 methyl piperazine, reference compound] as the molecule, how does the “effect of PTHrP(107-139) on osteoclasts in the presence of protein kinase C inhibitor” value (isolated osteoclasts) read?
A: blocked

Q: For T R C A W P G T C (TRCAWPGTC), which “Activity (bone resorption inhibitory activity), Table 3 Effect of Amino Acid Substitutions” value (isolated osteoclasts) is on record?
A: +

Q: For “T R S npA (TRS[2Nal]; not fully specified (C-terminus); printed as T R S npA) [npA is 3(2-napthyl)alanine]”, which “Activity (bone resorption inhibitory activity), Table 3 Effect of Amino Acid Substitutions” value (isolated osteoclasts) is on record?
A: +

Q: For “T R SmeA W (TRS[Aib]W; not fully specified (C-terminus); printed as T R SmeA W) [me is α-methyl]”, which “Activity (bone resorption inhibitory activity), Table 3 Effect of Amino Acid Substitutions” value (isolated osteoclasts) is on record?
A: +

Q: For “Thr Arg Ser Ala Trp Leu Asp Ser Gly Val Thr Gly Ser Gly Leu Glu Gly Asp His Leu Ser Asp Thr Ser Thr Thr Ser Leu Glu Leu Asp Ser Arg-COOH (TRSAWLDSGVTGSGLEGDHLSDTSTTSLELDSR-OH) [PTHrP(107-139)]”, which “inhibition of resorption (pit number/osteoclast number), FIG. 2” value (isolated osteoclasts; peptides at 1 nM) is on record?
A: substantial inhibition

Q: What about the “cyclic AMP response” value [1] of the same molecule?
A: no elevation

Q: What about the “serum calcium level at 30 minutes after injection” value [2] of the same molecule?
A: 2.35 millimolar

Q: What about the “serum calcium level at 60 minutes after injection” value [2] of the same molecule?
A: about 2.55 millimolar

Q: Which “serum calcium level at 30 minutes after injection” value [2] does the source give for calcitonin [reference compound] here?
A: about 2.35 millimolar

Q: With calmon calcitonin [reference compound] as the molecule, how does the “cyclic AMP response” value [1] read?
A: 2.5 fold
